Article PMC9182199, “Borylated 2,3,4,5-Tetrachlorophthalimide and Their 2,3,4,5-Tetrachlorobenzamide Analogues: Synthesis, Their Glycosidase Inhibition and Anticancer Properties in View to Boron Neutron Capture Therapy” (Molecules, 2022)
Where two headings read alike, the source gives them in different places.

Assays:
almond β-glucosidase = assay: Glycosidase inhibition, laboratory 1: almond β-glucosidase; type: biochemical; settings: methanol
Excerpt: (§1) The enzymes α-glucosidase (from yeast), β-glucosidases (from almond and bovine liver), α-galactosidase (from coffee beans), β-galactosidase (from bovine liver), α-mannosidase (from Jack bean), β-mannosidase (from snail), α-L-rhamnosidase (from Penicillium decumbens), α-L-fucosidase (from bovine kidney), trehalase (from porcine kidney), β-glucuronidases (from E. coli and bovine liver), amyloglucosidase (from A. niger), para-nitrophenyl glycosides, and various disaccharides were purchased from Sigma-Aldrich Co (St Louis, MO, USA).
(§2) Brush border membranes were prepared from the rat small intestine according to the method of Kessler et al. and were assayed at pH 6.8 for rat intestinal maltase using maltose. For rat intestinal maltase, porcine kidney trehalase, and A. niger amyloglucosidase activities, the reaction mixture contained 25 mM maltose and the appropriate amount of enzyme, and the incubations were performed for 10–30 min at 37 °C. The reaction was stopped by heating at 100 °C for 3 min. After centrifugation (600× g; 10 min), the resulting reaction mixture was added to the Glucose CII-test Wako (Wako Pure Chemical Ind., Osaka, Japan). The absorbance at 505 nm was measured to determine the amount of the released D-glucose. Other glycosidase activities were determined using an appropriate para-nitrophenyl glycoside as substrate at the optimum pH of each enzyme. The reaction mixture contained 2 mM of the substrate and the appropriate amount of enzyme. The reaction was stopped by addition of 400 mM Na2CO3. The released para-nitrophenol was measured spectrometrically at 400 nm. All reactions run in methanol.

[1] = test system: bovine liver β-glucuronidase; assay: Glycosidase inhibition, laboratory 1: bovine liver β-glucuronidase; type: biochemical; settings: methanol
Excerpt: as §1, §2

Bacillus α-glucosidase = assay: Glycosidase inhibition, laboratory 2: Bacillus α-glucosidase; type: biochemical; settings: water
Procedure: All enzymes and para-nitrophenyl substrates were purchased from Sigma. Enzymes were assayed at 27 °C in 0.1 M citric acid/0.2 M disodium hydrogen phosphate buffers at the optimum pH for the enzyme. The incubation mixture consisted of 10 μL enzyme solution, 10 μL of 1 mg/mL aqueous solution of extract and 50 μL of the appropriate 5 mM para-nitrophenyl substrate made up in buffer at the optimum pH for the enzyme. The reactions were stopped by addition of 70 μL 0.4 M glycine (pH 10.4) during the exponential phase of the reaction, which had been determined at the beginning using uninhibited assays in which water replaced inhibitor. Final absorbances were read at 405 nm using a Versamax microplate reader (Molecular Devices). Assays were carried out in triplicate, and the values given are means of the three replicates per assay. All reactions run in water.

HT29 = assay: MTT cell growth inhibition: HT29; type: cell-based; settings: 72 h; for inhibition at 25 µM: Homo sapiens, HT-29, HT29 colon carcinoma, read-out: Percentage (%) Cell Growth Inhibition in response to 25 µM of Drug
Procedure: (§3) All test agents were prepared as stock solutions (20 mM) in dimethyl sulfoxide (DMSO) and stored at −20 °C. Cell lines used in the study included HT29 (colorectal carcinoma); U87, SJ-G2, (glioblastoma); MCF-7, (breast carcinoma); A2780 (ovarian carcinoma); H460 (lung carcinoma); A431 (skin carcinoma); Du145 (prostate carcinoma); BE2-C (neuroblastoma); MiaPaCa-2 (pancreatic carcinoma); and SMA560 (spontaneous murine astrocytoma), together with the one non-tumour-derived normal breast cell line (MCF10A). All cell lines were incubated in a humidified atmosphere 5% CO2 at 37 °C. The cancer cell lines were maintained in Dulbecco’s modified Eagle’s medium (DMEM; Sigma, Australia) supplemented with foetal bovine serum (10%), sodium pyruvate (10 mM), penicillin (100 IUmL^−1), streptomycin (100 µg mL^−1) and L-glutamine (2 mM).
(§4) Growth inhibition was determined by plating cells in duplicate in medium (100 µL) at a density of 2500–4000 cells per well in 96-well plates. On day 0 (24 h after plating), when the cells were in logarithmic growth, medium (100 µL) with or without the test agent was added to each well. After 72 h drug exposure, growth inhibitory effects were evaluated using the MTT (3-(4,5-dimethyltiazol-2-yl)-2,5-diphenyltetrazolium bromide) assay and absorbance read at 540 nm. The percentage growth inhibition was calculated at a fixed concentration of 25 µM, based on the difference between the optical density values on day 0 and those at the end of drug exposure. Each data point is the mean ± the standard error of the mean (SEM) calculated from three replicates which were performed on separate occasions and separate cell line passages.

A2780 = assay: MTT cell growth inhibition: A2780; type: cell-based; settings: A2780 ovarian carcinoma; for inhibition at 25 µM / GI50: Homo sapiens; for inhibition at 25 µM: read-out: Percentage (%) Cell Growth Inhibition in response to 25 µM of Drug; for GI50: read-out: GI50 = Concentration (µM) that inhibits cell growth by 50%, dose response
Procedure: as §3, §4

A431 = assay: MTT cell growth inhibition: A431; type: cell-based; settings: A431 skin carcinoma; for inhibition at 25 µM / GI50: Homo sapiens; for inhibition at 25 µM: A-431, read-out: Percentage (%) Cell Growth Inhibition in response to 25 µM of Drug; for GI50: A-431, read-out: GI50 = Concentration (µM) that inhibits cell growth by 50%, dose response
Procedure: as §3, §4

Du145 = assay: MTT cell growth inhibition: Du145; type: cell-based; settings: 72 h; for inhibition at 25 µM: Homo sapiens, DU-145, Du145 prostate carcinoma, read-out: Percentage (%) Cell Growth Inhibition in response to 25 µM of Drug
Procedure: as §3, §4

BE2-C = assay: MTT cell growth inhibition: BE2-C; type: cell-based; settings: BE2-C neuroblastoma, 72 h; for inhibition at 25 µM: Homo sapiens, BE(2)-C, read-out: Percentage (%) Cell Growth Inhibition in response to 25 µM of Drug
Procedure: as §3, §4

SJ-G2 = assay: MTT cell growth inhibition: SJ-G2; type: cell-based; settings: SJ-G2 glioblastoma, 72 h; for inhibition at 25 µM: read-out: Percentage (%) Cell Growth Inhibition in response to 25 µM of Drug
Procedure: as §3, §4

[2] = target: T1, coffee beans α-galactosidase (Coffea arabica, UniProt Q42656); assay: Glycosidase inhibition, laboratory 1: coffee beans α-galactosidase; type: biochemical; settings: methanol
T1 construct: purchased Sigma-Aldrich Co
T1 sequence (Q42656 16-378): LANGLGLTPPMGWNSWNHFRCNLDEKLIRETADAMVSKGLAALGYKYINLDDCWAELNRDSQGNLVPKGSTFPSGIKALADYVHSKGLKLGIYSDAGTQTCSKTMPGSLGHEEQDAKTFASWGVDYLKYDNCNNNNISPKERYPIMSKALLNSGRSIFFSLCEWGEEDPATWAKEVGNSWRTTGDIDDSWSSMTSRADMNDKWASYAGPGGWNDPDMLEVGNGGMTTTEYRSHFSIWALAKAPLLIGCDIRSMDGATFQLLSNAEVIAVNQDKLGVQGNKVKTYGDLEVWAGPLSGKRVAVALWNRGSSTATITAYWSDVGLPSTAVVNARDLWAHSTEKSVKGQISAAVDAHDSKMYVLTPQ
Excerpt: as §1, §2

[3] = target: T2, bovine kidney α-L-fucosidase (Bos taurus, UniProt Q2KIM0); assay: Glycosidase inhibition, laboratory 1: α-L-fucosidase; type: biochemical; settings: methanol
T2 construct: purchased Sigma-Aldrich Co
T2 sequence (Q2KIM0 23-468): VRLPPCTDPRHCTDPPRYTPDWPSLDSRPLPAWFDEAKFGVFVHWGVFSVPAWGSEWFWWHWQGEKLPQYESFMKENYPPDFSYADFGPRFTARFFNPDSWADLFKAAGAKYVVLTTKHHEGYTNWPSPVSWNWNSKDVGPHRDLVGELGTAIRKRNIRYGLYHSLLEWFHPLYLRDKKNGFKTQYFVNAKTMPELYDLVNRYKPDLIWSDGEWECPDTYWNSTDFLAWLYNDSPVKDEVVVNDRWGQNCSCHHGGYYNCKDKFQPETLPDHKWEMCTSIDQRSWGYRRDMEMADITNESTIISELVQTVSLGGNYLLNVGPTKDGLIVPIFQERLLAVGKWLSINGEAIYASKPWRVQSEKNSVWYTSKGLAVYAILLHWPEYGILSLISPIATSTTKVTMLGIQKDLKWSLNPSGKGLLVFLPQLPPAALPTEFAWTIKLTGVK
Excerpt: as §1, §2

[4] = target: T3, A. niger amyloglucosidase (Aspergillus niger, UniProt P69328); assay: Glycosidase inhibition, laboratory 1: amyloglucosidase; type: biochemical; settings: for inhibition at 10 µM: read-out: inhibition % at 10 μM; for inhibition at 100 µM: read-out: inhibition % at 100 μM
T3 construct: purchased Sigma-Aldrich Co
T3 sequence (P69328 25-640): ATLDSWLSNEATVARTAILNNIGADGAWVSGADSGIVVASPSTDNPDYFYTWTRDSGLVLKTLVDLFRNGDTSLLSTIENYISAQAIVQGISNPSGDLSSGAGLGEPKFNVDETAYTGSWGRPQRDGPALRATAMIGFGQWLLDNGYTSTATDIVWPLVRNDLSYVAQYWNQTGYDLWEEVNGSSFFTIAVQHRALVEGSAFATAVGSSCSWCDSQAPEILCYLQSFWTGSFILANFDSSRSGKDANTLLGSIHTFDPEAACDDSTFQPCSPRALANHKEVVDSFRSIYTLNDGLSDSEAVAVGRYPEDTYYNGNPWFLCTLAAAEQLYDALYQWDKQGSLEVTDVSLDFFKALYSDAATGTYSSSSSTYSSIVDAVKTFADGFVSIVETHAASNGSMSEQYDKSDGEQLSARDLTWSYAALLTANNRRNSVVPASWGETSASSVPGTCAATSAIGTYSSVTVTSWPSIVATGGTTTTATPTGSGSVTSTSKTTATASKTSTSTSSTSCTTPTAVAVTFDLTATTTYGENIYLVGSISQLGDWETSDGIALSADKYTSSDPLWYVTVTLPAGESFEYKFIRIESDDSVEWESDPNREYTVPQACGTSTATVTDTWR
Excerpt: as §1, §2

[5] = A. niger amyloglucosidase, 100 μM, methanol

| SMILES | inhibition % at 100 μM (almond β-glucosidase) | inhibition % at 100 μM [1] | inhibition at 25 µM (HT29) [%] | inhibition at 25 µM (A2780; 25 µM, 72 h, MTT) [%] | inhibition at 25 µM (A431; 25 µM, 72 h, MTT) [%] | inhibition at 25 µM (Du145) [%] | inhibition at 25 µM (BE2-C) [%] | inhibition at 25 µM (SJ-G2) [%] | % inhibition at ~400 μM (Bacillus α-glucosidase) [%] | GI50 (A2780) [µM] | GI50 (A431) [µM] | inhibition at 100 µM ([2]; 100 μM) [%] | inhibition at 100 µM ([3]; 100 μM) [%] | also measured |
| --- | --- | --- | --- | --- | --- | --- | --- | --- | --- | --- | --- | --- | --- | --- |
| N[C@@H](Cc1ccc(B(O)O)cc1)C(=O)O [BPA, 4-borono-L-phenylalanine, reference compound] | ^cNI ^d (0%) | ^cNI ^d (7.4%) | 14 | 4 ± 1 | 4 ± 6 | 19 ± 10 | 13 ± 10 | 5 ± 8 | – | – | – | – | – | % inhibition at ~400 μM (Bacillus α-glucosidase; 400 µM): 19.9% |
| N[C@@H](Cc1ccc(B(O)O)cc1)C(=O)O [^10B-BPA, reference compound] | ^cNI ^d (0%) | ^cNI ^d (0%) | – | – | – | – | – | – | – | – | – | – | – | inhibition % at 100 μM ([2]; 100 μM): ^cNI ^d (1.2%); inhibition % at 100 μM ([3]; 100 μM): ^cNI ^d (0%); inhibition % at 100 μM [4, 5]: ^cNI ^d (0%); % inhibition at ~400 μM (Bacillus α-glucosidase; 400 µM): 19.5%; Percentage (%) Cell Growth Inhibition in response to 25 µM of Drug (HT29; HT29 colon carcinoma): 15 ± 4%; Percentage (%) Cell Growth Inhibition in response to 25 µM of Drug (A2780; 25 µM, 72 h, MTT): 8 ± 4%; Percentage (%) Cell Growth Inhibition in response to 25 µM of Drug (A431; 25 µM, 72 h, MTT): 4 ± 4%; Percentage (%) Cell Growth Inhibition in response to 25 µM of Drug (Du145; Du145 prostate carcinoma): 15 ± 9%; Percentage (%) Cell Growth Inhibition in response to 25 µM of Drug (BE2-C): 10 ± 6%; Percentage (%) Cell Growth Inhibition in response to 25 µM of Drug (SJ-G2): 5 ± 10% |
| CC1(C)OB(c2cccc(CN3C(=O)c4c(Cl)c(Cl)c(Cl)c(Cl)c4C3=O)c2)OC1(C)C [meta 3, 4,5,6,7-Tetrachloro-2-(3-(4,4,5,5-tetramethyl-1,3,2-dioxaborolan-2-yl)benzyl)isoindoline-1,3-dione] | – | – | 53 ± 3 | 70 ± 2 | 48 ± 3 | 43 ± 13 | 45 ± 2 | 35 ± 4 | 31.7 | 19 ± 0.33 | 28 ± 0.85 | – | – | inhibition % at 10 μM (almond β-glucosidase): ^cNI ^d (5.0%); inhibition at 10 µM [2]: 3.5%; inhibition at 10 µM [3]: 4.7%; inhibition % at 10 μM [1]: ^cNI ^d (5.7%); inhibition at 10 µM [4]: 3.2% |
| CC1(C)OB(c2cccc(NC(=O)c3cc(Cl)c(Cl)c(Cl)c3Cl)c2)OC1(C)C [meta 5, 2,3,4,5-tetrachloro-N-(3-(4,4,5,5-tetramethyl-1,3,2-dioxaborolan-2-yl)phenyl)benzamide] | ^aNI ^b (30.2%) | ^aNI ^b (6.0%) | 10 ± 7 | 49 ± 4 | 9 ± 9 | < 0 | 3 ± 4 | < 0 | 54.1 | – | – | 30.2 | 3.3 | inhibition at 100 µM [4, 5]: 2.8% |
| CC1(C)OB(c2ccccc2NC(=O)c2cc(Cl)c(Cl)c(Cl)c2Cl)OC1(C)C [ortho 5, 2,3,4,5-Tetrachloro-N-(2-(4,4,5,5-tetramethyl-1,3,2-dioxaborolan-2-yl)phenyl)benzamide] | – | – | 98 ± 2 | 97 ± 2 | 100 ± 2 | > 100 | > 100 | 92 ± 5 | 14.4 | 16 ± 1.2 | 11 ± 1.8 | – | – | inhibition % at 10 μM (almond β-glucosidase): ^cNI ^d (11.6%); inhibition at 10 µM [2]: 0%; inhibition at 10 µM [3]: 0%; inhibition % at 10 μM [1]: ^cNI ^d (0%); inhibition at 10 µM ([4]; A. niger amyloglucosidase, 10 μM, methanol): 0% |
| CC1(C)OB(c2ccccc2CNC(=O)c2cc(Cl)c(Cl)c(Cl)c2Cl)OC1(C)C [ortho 8, 2,3,4,5-tetrachloro-N-(2-(4,4,5,5-tetramethyl-1,3,2-dioxaborolan-2-yl)benzyl)benzamide] | – | ^aNI ^b (16.3%) | 5 ± 10 | 19 ± 10 | < 0 | < 0 | 2 ± 5 | < 0 | 23.7 | – | – | 114 | 19.9 | IC50 (almond β-glucosidase): 254 µM; inhibition at 100 µM [4]: 0% |
| CC1(C)OB(c2ccc(CN3C(=O)c4c(Cl)c(Cl)c(Cl)c(Cl)c4C3=O)cc2)OC1(C)C [para 3, 4,5,6,7-Tetrachloro-2-(4-(4,4,5,5-tetramethyl-1,3,2-dioxaborolan-2-yl)benzyl)isoindoline-1,3-dione] | ^aNI ^b (0.7%) | ^aNI ^b (1.0%) | 99 ± 2 | > 100 | 85 ± 8 | > 100 | > 100 | > 100 | 17.9 | 11 ± 1.1 | 18 ± 2.3 | 0.2 | 0 | inhibition at 100 µM [4]: 1% |
| CC1(C)OB(c2ccc(NC(=O)c3cc(Cl)c(Cl)c(Cl)c3Cl)cc2)OC1(C)C [para 5, 2,3,4,5-tetrachloro-N-(4-(4,4,5,5-tetramethyl-1,3,2-dioxaborolan-2-yl)phenyl)benzamide] | ^aNI ^b (17.1%) | ^aNI ^b (36.5%) | 69 ± 7 | 50 ± 1 | 64 ± 4 | 1 ± 13 | 54 ± 1 | 28 ± 6 | 20 | – | – | 35.8 | 5.1 | inhibition at 100 µM [4, 5]: 0% |
